Source: US20190169218A1, “AMPHIPATHIC COMPOUND HAVING NOVEL PENTA-SACCHARIDE HYDROPHILIC GROUP AND USE THEREOF” (Industry-University Cooperation Foundation Hanyang …, priority 2016, published 2019)

How the values were obtained:
[1] = target: T1, human β2 adrenergic receptor (β2AR) (Homo sapiens, UniProt P07550); assay: β2AR activity by [3H]-dihydroalprenolol radioactive ligand binding assay; assay type: biochemical; conditions: for long-term β2AR activity ([3H]-DHA binding): 3 or 5 days at room temperature
T1 construct: Flag; made in house
T1 sequence (P07550 whole entry): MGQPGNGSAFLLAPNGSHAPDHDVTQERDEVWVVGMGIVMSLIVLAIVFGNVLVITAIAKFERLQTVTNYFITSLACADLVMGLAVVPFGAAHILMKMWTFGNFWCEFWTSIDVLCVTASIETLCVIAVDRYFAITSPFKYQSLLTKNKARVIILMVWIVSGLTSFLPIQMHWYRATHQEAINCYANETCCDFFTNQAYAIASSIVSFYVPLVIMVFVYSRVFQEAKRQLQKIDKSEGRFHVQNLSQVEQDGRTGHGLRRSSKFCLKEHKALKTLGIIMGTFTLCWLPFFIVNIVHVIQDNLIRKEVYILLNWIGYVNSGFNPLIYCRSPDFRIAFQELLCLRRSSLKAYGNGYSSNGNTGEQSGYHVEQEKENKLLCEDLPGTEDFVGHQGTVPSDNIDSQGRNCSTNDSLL
Protocol: The membrane protein stabilizing ability of receptors (mBBr-β2ARs) solubilized in PSAs or PSEs was evaluated by measuring the binding activity of the receptors to [^3H]-dihydroalprenolol ([^3H]-DHA).
Specifically, radioactive ligand binding assay was performed as follows. β2ARs purified with 0.1 wt % DDM was concentrated to about 10 mg/mL (approximately 200 μM). β2ARs purified with DDM were used to prepare a master binding mixture containing 10 nM [^3H]-dihydroalprenolol (DHA), which was dissolved in 0.2 wt % of DDM, PSA or PSE and supplemented with 0.5 mg/mL BSA. At a concentration of 0.2 pmol, the activity of the receptors purified with the amphipathic compounds was monitored at regular intervals over a 4-day incubation period. Protein samples were incubated on ice for 2 days and then at room temperature for 2 days. Receptor activity was measured by binding assay for dissolved radioactive ligands. The receptors purified with DDM or a novel formulation (PSA-C11, PSE-C11 or PSE-C13) were incubated with 10 nM [^3H]-DHA at room temperature for 30 minutes. The mixture was loaded onto a G-50 column, a solution passed through the column was collected in 1 mL of a binding buffer (100 mM NaCl and 20 mM HEPES (pH 7.5) supplemented with 0.5 mg/mL BSA and 20×CMC amphipathic compounds), and 15 mL of a scintillation fluid was added to the solution. Receptor-bound [^3H]-DHA was measured using a scintillation counter (Beckman). Non-specific binding of [^3H]-DHA was measured by adding 1 μM alprenolol (Sigma) to the same reaction mixture. The binding degree of the receptors to [^3H]-DHA was represented by a column graph.
The ability of TPSs (TPS-As, TPS-Es and TPS-ELs) to stabilize the structures of human β2 adrenergic receptors (β2ARs) and G protein-coupled receptors (GPCRs) was measured. That is, DDM-purified receptors were diluted with a buffer solution containing only each of the TPSs without cholesteryl hemisuccinate (CHS) or a buffer solution containing CHS and DDM. The final concentration of the compounds was CMC+0.2wt %, and the binding activity of the receptors to ligands was evaluated by measuring the degree of binding of the receptors to [^3H]-dihydroalprenolol ([^3H]-DHA).
Specifically, radioactive ligand binding assay was performed as follows. β2ARs were purified with 0.1 wt % DDM (D. M. Rosenbaum et al., Science, 2007, 318, 1266-1273.) and was concentrated to about 10 mg/mL (approximately 200 μM). β2ARs purified with DDM were used to prepare a master binding mixture containing 10 nM [^3H]-dihydroalprenolol (DHA), which was dissolved in 0.2% amphipathic compounds (DDM or TPSs) and supplemented with 0.5 mg/mL BSA. The activity of the receptors purified with the amphipathic compounds was monitored at regular intervals over a 3- to 5-day incubation period. The receptors purified with DDM or TPSs were incubated with 10 nM [^3H]-DHA at room temperature for 30 minutes. The mixture was loaded onto a G-50 column, a solution passed through the column was collected in 1 mL of a binding buffer (100 mM NaCl and 20 mM HEPES (pH 7.5) supplemented with 0.5 mg/mL BSA and 20×CMC of each amphipathic compound), and 15 mL of a scintillation fluid was added to the solution. Receptor-bound [^3H]-DHA was measured using a scintillation counter (Beckman). The binding degree of the receptors to [^3H]-DHA was represented by a column graph.

[2] = hydrodynamic radius of micelles by dynamic light scattering (DLS); assay type: physicochemical; conditions: compound at 1.0 wt %
Protocol: Methods of measuring the radius of micelles are not particularly limited, and methods widely known in the art may be used. For example, dynamic light scattering (DLS) may be used.
(§1) Specifically, critical micellar concentrations (CMCs) were measured using hydrophobic fluorescent staining and diphenylhexatriene (DPH), and the hydrodynamic radii (Rh) of micelles formed by each compound at a concentration of 1.0 wt % were measured using dynamic light scattering (DLS). The results were compared with results obtained from an existing amphipathic molecule (detergent), DDM, and are shown in Table 1.
When measuring, each of PSAs, PSEs and TPSs was used at a concentration of 1.0 wt %.

[3] = test system: T4L-β2AR-Gs or β2AR-Gs complexes; assay: purification and stability of T4L-β2AR-Gs or β2AR-Gs complexes (analytical gel filtration, negative staining EM); set-up: species or system human; conditions: after incubation for 15 and 17 days
Protocol: The ability of PSE-C11 or TPS-E10L to purify and stabilize T4L-β2AR-Gs or β2AR-Gs complexes was measured using electron microscopy (EM) analysis.
Specifically, measurement of the ability of PSE-C11 for TPS-E10L to purify and stabilize T4L-β2AR-Gs or β2AR-Gs complexes was performed as follows. 100 μM T4L-β2AR solubilized in 0.1 wt % DDM was mixed with 120 μM Gs heterotrimers for 30 minutes. 0.5 units of apyrase (NEB) and 2 mM MgCl2 were added to the mixture, followed by a 1-hour incubation to form complexes. 1 wt % PSE-C11 or TPS-E10L was respectively added to the mixture to achieve a final concentration of 0.8%, and incubated for 30 minutes to allow DDM to be exchanged with PSE-C11 or TPS-E10L. […] Finally, proteins were eluted with a 0.05% (100×CMC) PSE-C11 or TPS-E10L buffer. Gel filtration was performed using a running buffer (20 mM HEPES (pH 7.5), 100 mM NaCl, 0.005% PSE-C11 or TPS-E10L, 1 μM BI, 100 μM TCEP) to purify T4L-β2AR-Gs complexes. To measure the stability of β2AR-Gs complexes present in PSE-C11 or TPS-E10L, analytical gel filtration was performed with running buffers of the same formulation at 12 hours, 1 day, 3 days, 7 days, and 15 days. After a 15 day-incubation, analytical gel filtration was performed using an amphiphilic compound pre-buffer having the same formulation as above without PSE-C11 or TPS-E10L.
In addition, negative staining EM analysis for T4L-β2AR-Gs or β2AR-Gs complexes present in PSE-C11 was performed as follows. Samples containing T4L-β2AR-Gs or β2AR-Gs were prepared to perform electron microscopy analysis using a conventional negative staining protocol (see Peisley, A. et al., G Protein-Coupled Receptors in Drug Discovery: Methods and Protocols, Methods in Molecular Biology, 1335, 29-38 (2015)), and imaging was performed by operating a Tecnai T12 electron microscope at 120 kV at room temperature. Images were recorded with a Gatan US4000 CCD camera at a 71,138×magnification with a defocus value of ˜[…].

[4] = critical micelle concentration (CMC) by hydrophobic fluorescent staining with diphenylhexatriene (DPH); assay type: physicochemical
Source text: Methods of measuring CMC are not particularly limited, and methods widely known in the art may be used. For example, a fluorescence staining method using diphenylhexatriene (DPH) may be used.
To characterize PSAs of Preparation Examples 1 to 3 synthesized according to the synthetic method of Example 1; PSEs of Preparation Examples 4 to 7 synthesized according to the synthetic method of Example 2; TPS-Es and TPS-ELs of Preparation Examples 8 to 14 synthesized according to the synthetic method of Example 3; and TPS-As of Preparation Examples 15 to 17 synthesized according to the synthetic method of Example 4, the critical micellar concentrations (CMCs) of PSAs, PSEs and TPSs and the hydrodynamic radii (Rh) of formed micelles were measured.
as §1

[5] = target: T2, uric acid-xanthine/H+ symporter (UapA) (Emericella nidulans, UniProt Q07307, G411V); assay: thermal stability of UapA by CPM analysis; set-up: species or system Aspergillus nidulans; conditions: CMC+0.2 wt %, 40° C., 120 minutes
T2 construct: GFP; made in house; host or cells: Saccharomyces cerevisiae FGY217
T2 sequence (Q07307 12-574 G411V): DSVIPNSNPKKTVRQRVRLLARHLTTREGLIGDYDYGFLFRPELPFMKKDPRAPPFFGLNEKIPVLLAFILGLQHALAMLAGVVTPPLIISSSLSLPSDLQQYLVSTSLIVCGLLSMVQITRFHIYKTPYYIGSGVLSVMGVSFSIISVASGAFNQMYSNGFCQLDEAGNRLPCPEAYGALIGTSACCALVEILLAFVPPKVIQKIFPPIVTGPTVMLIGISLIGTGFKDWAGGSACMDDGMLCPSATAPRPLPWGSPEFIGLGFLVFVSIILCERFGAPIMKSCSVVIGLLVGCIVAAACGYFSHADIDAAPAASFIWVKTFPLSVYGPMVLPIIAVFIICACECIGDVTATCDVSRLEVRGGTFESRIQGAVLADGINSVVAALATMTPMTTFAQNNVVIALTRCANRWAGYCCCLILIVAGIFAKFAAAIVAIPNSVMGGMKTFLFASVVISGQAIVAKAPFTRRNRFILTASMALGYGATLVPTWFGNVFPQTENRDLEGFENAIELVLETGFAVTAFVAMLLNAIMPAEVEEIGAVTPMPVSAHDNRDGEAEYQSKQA
Protocol: The ability of TPSs (TPS-As, TPS-Es and TPS-ELs) to stabilize the structure of uric acid-xanthine/H+ symporter (UapA) isolated from Aspergillus nidulans was measured. The structural stability of UapA was evaluated using a sulfhydryl-specific fluorophore, N-[4-(7-diethylamino-4-methyl-3-coumarinyl)phenyl]maleimide (CPM).
Specifically, UapAG411V1-11 (hereinafter, referred to as ‘UapA’) was expressed in a Saccharomyces cerevisiae FGY217 strain as a GFP fusion protein, and was isolated using a sample buffer (20 mM Tris (pH 7.5), 150 mM NaCl, 0.03% DDM, 1 mM xanthine). The transporter was concentrated to about 10 mg/mL using a 100 kDa molecular weight cut-off filter (Millipore). The transporter was diluted with a CMC+0.04 wt % or CMC+0.2 wt % buffer at a ratio of 1:150 in a Greiner 96-well plate containing one of TPS-As (TPS-A6, TPS-A7 or TPS-A8), TPS-Es (TPS-E6, TPS-E7 or TPS-E8), TPS-ELs (TPS-E8L, TPS-E9L, TPS-E10L or TPS-E11L), MNG-3 or DDM (control group). […] During incubation, fluorescence emission intensity was monitored using a microplate spectrophotometer set at excitation and emission wavelengths of 387 and 463 nm, respectively. The maximum value of fluorescence intensity was used to calculate the relative percentage of folded transporters during the incubation period. […]

SMILES	long-term β2AR activity ([3H]-DHA binding) [1]	initial receptor activity maintained ([1]; after 5 days of incubation at room temperature)	Rh (nm), hydrodynamic radius of micelles [2]	stability of β2AR-Gs complexes (analytical gel filtration) [3]	CMC [4]	CMC (wt %) [4]	maintaining folding state of UapA (CPM) [5]
CCCCCCCCCCOCC(COCCCCCCCCCC)(COCCCCCCCCCC)CO[C@@H]1OC(COCCCO[C@@H]2OC(CO)[C@@H](O)C(O)C2O)[C@@H](OCCCO[C@@H]2OC(CO)[C@@H](O)C(O)C2O)C(OCCCO[C@@H]2OC(CO)[C@@H](O)C(O)C2O)C1OCCCO[C@@H]1OC(CO)[C@@H](O)C(O)C1O (some centres unmarked) [TPS-E10L]	significantly better than that of DDM	up to 90%	4.8 ± 0.34 nm	no separation of the complexes was observed at all	~0.002 mM	~0.0003 wt %	
CCCCCCCCCCCOCC(COCCCCCCCCCCC)(COCCCCCCCCCCC)CO[C@@H]1OC(COCCCO[C@@H]2OC(CO)[C@@H](O)C(O)C2O)[C@@H](OCCCO[C@@H]2OC(CO)[C@@H](O)C(O)C2O)C(OCCCO[C@@H]2OC(CO)[C@@H](O)C(O)C2O)C1OCCCO[C@@H]1OC(CO)[C@@H](O)C(O)C1O (some centres unmarked) [TPS-E11L]	significantly better than that of DDM		40.6 ± 4.4 nm		~0.001 mM	~0.0002 wt %	the best effect
